Patent EP1034782A1, “Treatment of depression by using compounds which elevate the intracellular sodium concentration” (Singer, Andrea, priority 1999, dated 2000)

Assays:
human platelets = assay: Measuring [Na^+]i with SBFI/AM fluorescence in platelets; format: cell-based; conditions: for [Na^+]i elevated from basal levels up to: highest concentration investigated: 50 µM hyperforin, 10 µM monensin, platelets, SBFI fluorescence
Experimental: Solutions: The Na^+-HEPES buffer consisted 10 mM HEPES, 1 mM MgSO4, 5 mM KH2PO4, 5 mM KCI and 5 mM Glucose (4). The pH of this buffer was adjusted to 6.5 with NH3 (for storage of platelets) and to 7.4 for the measurement of fluorescence. The K^+ solution was identical except for complete replacement of sodium by potassium.
Preparation of platelets and loading with SBFI/AM: Venous blood (10 ml) was anticoagulated by mixing it with 1.0 ml citrate solution in a S-Monovette. […] Platelet pellets were obtained from PRP by centifugation at 480 x g for 30 min at room temperature. The pellet was resuspended into Sodium-HEPES buffer, pH 6.5 at a final concentration of 3-4 x 10^8 cells/ml. […] Appropriate amounts of this solution were added to the platelets to yield a final concentration of SBFI/AM of 10 µM and platelets were incubated with the dye for 60 min at 37°C in a shaking water bath. Thereafter, platelets were again centrifuged at 480 x g for 30 min at RT. The supernatant was discarded and the platelets were taken up into sodium-HEPES buffer, pH 6.5 at a concentration of 3-4 x 10^9 cells/ml. The platelet suspension was then stored at RT until used for the fluorescence measurements.
Measurement of SBFI/AM Fluorescence: Aliquots of platelet suspension (4 µl) were added to 950 µl of the appropriate buffer. Fluorescence was measured in quartz cuvettes using a SLM-Aminco luminescence spectrometer before and after addition of the tested drugs. […] All measurements were performed without stirring at room temperature.

norepinephrine = assay: Synaptosomal uptake of norepinephrine; format: cell-based; conditions: unpublished observations
[1] = biological target: T1, human serotonin transporter (Homo sapiens, UniProt P31645); assay: ^3H-serotonin uptake in platelets; format: cell-based
T1 construct: Blood from normal unmedicated volunteers was anticoagulated; endogenous in cells; host or cells: human platelets from blood of unmedicated volunteers
T1 sequence (P31645 whole entry): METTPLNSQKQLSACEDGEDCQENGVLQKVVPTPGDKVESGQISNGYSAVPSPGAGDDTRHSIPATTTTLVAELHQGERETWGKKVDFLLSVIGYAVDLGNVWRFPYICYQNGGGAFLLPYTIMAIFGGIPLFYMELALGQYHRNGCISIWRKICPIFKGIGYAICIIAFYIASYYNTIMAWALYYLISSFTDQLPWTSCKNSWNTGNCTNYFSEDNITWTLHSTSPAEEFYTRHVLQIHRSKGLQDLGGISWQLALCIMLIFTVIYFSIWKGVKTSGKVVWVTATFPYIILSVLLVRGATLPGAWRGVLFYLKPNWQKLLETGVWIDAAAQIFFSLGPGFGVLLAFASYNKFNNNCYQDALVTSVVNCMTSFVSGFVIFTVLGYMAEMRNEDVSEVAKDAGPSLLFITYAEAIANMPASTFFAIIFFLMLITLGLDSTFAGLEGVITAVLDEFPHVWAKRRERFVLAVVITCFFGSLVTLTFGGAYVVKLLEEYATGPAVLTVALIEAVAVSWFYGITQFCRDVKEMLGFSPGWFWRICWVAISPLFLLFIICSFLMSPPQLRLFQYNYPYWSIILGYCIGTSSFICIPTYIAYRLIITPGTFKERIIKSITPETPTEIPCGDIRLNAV

serotonin transporter [2] = biological target: T2, serotonin transporter (Mus musculus, UniProt Q60857); assay: Synaptosomal uptake of ^3H-serotonin (mouse cortex synaptosomes); format: cell-based
T2 construct: Synaptosomal preparations from frontal cortex of female NMRI mice were used for serotonin uptake; from tissue; host or cells: frontal cortex of female NMRI mice (synaptosomes or membranes)
T2 sequence (Q60857 whole entry): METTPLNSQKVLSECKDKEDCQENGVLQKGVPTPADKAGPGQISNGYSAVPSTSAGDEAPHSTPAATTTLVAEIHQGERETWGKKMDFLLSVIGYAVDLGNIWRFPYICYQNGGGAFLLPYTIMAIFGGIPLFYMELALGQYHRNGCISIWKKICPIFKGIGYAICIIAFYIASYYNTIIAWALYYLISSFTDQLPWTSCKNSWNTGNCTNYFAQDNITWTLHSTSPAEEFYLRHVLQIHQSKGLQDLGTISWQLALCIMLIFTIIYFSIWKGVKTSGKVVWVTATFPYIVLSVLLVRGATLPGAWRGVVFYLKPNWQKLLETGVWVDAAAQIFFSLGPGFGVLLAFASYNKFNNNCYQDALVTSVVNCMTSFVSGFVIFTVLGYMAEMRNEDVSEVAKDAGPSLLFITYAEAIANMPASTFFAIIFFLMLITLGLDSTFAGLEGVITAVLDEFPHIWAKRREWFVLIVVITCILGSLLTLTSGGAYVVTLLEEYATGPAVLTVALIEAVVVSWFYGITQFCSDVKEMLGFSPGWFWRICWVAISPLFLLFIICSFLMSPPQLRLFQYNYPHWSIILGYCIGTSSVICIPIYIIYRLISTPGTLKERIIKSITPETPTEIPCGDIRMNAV
Experimental: Synaptosomal preparations from frontal cortex of female NMRI mice were used for serotonin uptake. The tissue was homogenized in ice cold sucrose solution (0.32 M) and diluted with 10 ml of the homogenizing medium. The nuclear fraction was eliminated by centrifugation at 750 x g for 10 min (Beckman Centrifuge, Model J2-21). […] The probes were cooled, immediately filtered through Whatman GF/B glass fiber filters and washed three times with ice cold buffer solution with a Brandel cell harvester. Filters were placed in plastic scintillation vials containing 4 ml Lumasafe scintillation cocktail (Packard). Radioactivity was measured after 12 hours. Nonspecific uptake was determined in parallel probes maintained throughout on ice or containing unlabelled serotonin (1mM serotonin).

serotonin transporter [3] = biological target: T2, serotonin transporter; assay: Kinetic analyses of ^3H-serotonin uptake into mouse cortex synaptosomes; format: cell-based; conditions: hyperforin 2 µM, citalopram 1 nM, monensin concentration not given in the text
dopamine = assay: Synaptosomal uptake of dopamine; format: cell-based; conditions: unpublished observations
L-glutamate = assay: Synaptosomal uptake of L-glutamate; format: cell-based; conditions: unpublished observations
GABA = assay: Synaptosomal uptake of GABA; format: cell-based; conditions: unpublished observations
serotonin transporter [4] = biological target: T2, serotonin transporter; assay: ^3H-paroxetine binding assay (mouse frontal cortex membranes)
Experimental: Female NMRI mice were sacrified by decapitation. […] The homogenate was centrifuged for 10 min at 35000 x g at 4°C. The resulting pellet was resuspended in 40 volumes of buffer and recentrifuged. The pellet was resuspended in TRIS buffer at a protein concentration of 70 µg/ml. Aliquots of membrane suspension were incubated with ^3H-paroxetine (0.2 nM) at room temperature for 60 minutes. Incubation was terminated by rapid filtration through Whatman GF/B glass fiber filters with a Brandel Cell Harvester. […] The filters were washed 7 times with ice cold buffer, dried and the radioactivity was measured by liquid scintillation spectrometry.

Structure (SMILES)	Maximal elevation of [Na^+]i (human platelets; 50 µM hyperforin, human platelets)	[Na^+]i elevated from basal levels up to (human platelets)	incubation time to maximal effect on [Na^+]i (human platelets; hyperforin, human platelets)	IC50 synaptosomal uptake of norepinephrine (norepinephrine)	IC50 ([1]; inhibition of ^3H-serotonin uptake into human platelets, Table 3)	inhibition at 0.5 µM ([1]; monensin 500 nM, human platelets)	IC50 (serotonin transporter [2])	Vmax (serotonin transporter [3])	IC50 synaptosomal uptake of dopamine (dopamine)	incubation time to equilibration of [Na^+]i elevation (human platelets; monensin, human platelets)	IC50 synaptosomal uptake of L-glutamate (L-glutamate)	IC50 synaptosomal uptake of GABA (GABA)	IC50 (serotonin transporter [4])
CC(C)=CCCC1(C)C(CC=C(C)C)CC2(CC=C(C)C)C(=O)C(CC=C(C)C)=C(O)C1(C(=O)C(C)C)C2=O (centres unmarked) [Hyperforin]	about 70 mM	69,0 ± 16,1 mM	≤ 15 min										
CC[C@@]1([C@@H]2O[C@@H]([C@H]3O[C@@](O)(CO)[C@H](C)C[C@@H]3C)C[C@@H]2C)CC[C@H]([C@]2(C)CC[C@]3(C[C@H](O)[C@@H](C)[C@@H]([C@@H](C)[C@@H](OC)[C@H](C)C(=O)O)O3)O2)O1 [Monensin]		140,0 ± 9,1 mM		nanomolar range	159 nM	~70%	47.8 nM	0,065 ± 0,009 pM/min/mg protein	nanomolar range	15 min	nanomolar range	nanomolar range	> 1000 nM
